Reference: patent US20140316007A1 (RICHTER GEDEON NYRT., priority 2011, published 2014)
Like-named read-outs stand apart in the source and are kept apart here.

What was measured:
[1] = mouse diet-induced obesity (DIO) test, weight loss; assay type: in vivo; conditions: two weeks, obese C57B16 mice
Experimental: The experiments were performed using a diet-induced obesity (DIO) test. The DIO test is a widely accepted animal model of human obesity well mimicking the development and course of the disease, its comorbidities as well as its response to pharmacological medications (Hariri and Thibault Nutr. Res. Rev. 23:270-299 2010). Young (22-25 g) male C57B16 mice were fed with high-fat diet (e.g. D12492, Research Diets Inc., New Brunswick, N.J., USA), thus these animals became obese compared to mice kept on a control diet. The body weights of control and obese mice were 31.84±0.89 and 45.74±0.78 g, respectively, in the first experiment (n=8 per group, mean±SEM). These values were 30.47±0.58 and 45.38±0.61 g (n=20 per group) in the second experiment, and 27.61±0.34 and 41.00±0.91 (n=8 per group) in the third experiment (Study 2). Then the animals were assigned to different groups and treated with different vehicles or test compounds. Test compounds were dissolved in water and administered per os twice daily in a volume of 10 ml/kg of body weight. The animals were weighed daily during the experiments. The percent weight loss of each animal compared the baseline body weight was calculated at the end of the two-week-long experiment. The average percent weight change of the vehicle group was subtracted from the percent weight change of each animal, thus the vehicle-corrected weight loss was calculated. The statistical evaluation of results included descriptive statistics (mean and standard error). Furthermore, statistical significance of differences between groups was evaluated using one-way or factorial ANOVA test followed by Duncan's post-hoc test. Interactions between different treatments (i.e. combination of drugs) were evaluated using factorial ANOVA test.
Baclofen caused a body weight loss of 3.2%, which was statistically non-significant. […] The doses shown in FIG. 1 were administered per os twice daily. The results are shown as mean±SE of percent vehicle-corrected weight loss. There were no statistical differences between the other three groups. (Number of animals: n=8 per group, except the memantine group, where n=7.)
We have also tested the combination of phentermine and baclofen. In the study investigating the effects of 2.5 mg/kg phentermine and 2 mg/kg baclofen, both drugs decreased the body weight moderately (by 5.4% and 3.6%, respectively). […] There was no significant difference between the groups (including the vehicle group as well). […] Data in FIG. 3 are presented as mean±SE of percent vehicle-corrected weight loss.

[2] = rotarod test in mice; conditions: male, NMRI, mouse, in vivo, po
Text: The rotarod test is a widely used simple and objective method to detect the side effects affecting motor function in rodents. This method is also capable for sensitive detection of a central muscle relaxant effect, which is a pharmacological feature of both memantine and baclofen (Farkas et al. J. Pharmacol. Toxicol. Methods 52:264-273 2005). However, other CNS side effects (e.g. sleepiness, disturbances in coordination) also impair rotarod performance. Therefore this method was used to assess liability of the combination memantine and baclofen to produce unwanted side effects.
Mice were placed on a rod rotating with a constant speed of 12 rpm. After training, i.e. after habituation to the rotarod three times for 120 seconds on the previous day, the mice are usually able to run on the rod for 120 seconds without falling down. Immediately before the treatment with the test compounds, the mice were tested and only those able to stay on the rod for 120 seconds were involved to the experiment. Test compounds were dissolved in distilled water (vehicle) and administered orally to groups of ten male NMRI mice (20-24 g). One group was treated with vehicle in each experimental session. […] We calculated the mean latency to fall in each group and the percent change relative to the latency in the vehicle group. […]

[3] = spontaneous horizontal motor activity of mice (LABORAS); assay type: in vivo; conditions: 12-hour light phase, C57B16J mice
Text: NMDA receptor antagonists are known to cause dose-dependent behavioral activation in rodents, which is manifested in increased locomotor activity (Sukhanov et al. Behav. Pharmacol. 15:263-271 2004). This behavior may correspond to side effects observed in the clinical practice, such as agitation and restlessness, which are rarely seen with memantine. We have studied the modulating effect of baclofen on the locomotor activity increasing effect of memantine when administered to mice in combination. Groups of male C57B16J mice (25-32 g; Wobe-Harlan, Hungary; 8-10 mice/group) were treated orally with 2 mg/kg baclofen, 2.5 mg/kg memantine or their combination or vehicle (distilled water) twice daily during the light phase of diurnal light-dark cycle. After one day of habituation, the activity of the animals was recorded continuously for 24 hours on the first and 14th day of treatment using an automated behavioral activity measurement system (LABORAS, Metris, Netherlands). However, only the data from the light phase (12 hours) are shown. The animals were housed individually during the whole experiment in their home cages, which enabled the activity recording as well. The mechanical vibrations and gravity related static signals evoked by the movement of the animals were transformed to an electrical signal by the system, and these recorded signals were evaluated off-line by a computer algorithm (Quinn et al. J. Neurosci. Methods 130:83-92 2003). The behavior of the mice was categorized by the software as locomotor activity, immobility, climbing and grooming. […] Statistical analysis was performed using ANOVA followed by Tukey's post hoc test. The statistical significance of effects of drug treatments was calculated compared to vehicle and also compared to other drug-treated groups.

[4] = 30 mg/day, 12 weeks, cited from earlier work
[5] = targeted dose 60 mg/day, within 10 weeks, binge eating patients; cited from earlier work
[6] = cited from earlier work
[7] = recommended dosing regimen; cited from earlier work
[8] = dose gradually increased to 20 mg/day, 16 obese binge eater patients; cited from earlier work

## NCC(CC(=O)O)c1ccc(Cl)cc1 (racemic) [baclofen]
[1]; Study 1, first experiment, 2 mg/kg baclofen per os twice daily
  vehicle-corrected body weight loss: 3.2%
[1]; Study 2, 2 mg/kg baclofen per os twice daily
  vehicle-corrected body weight loss: 3.6%
[2]
  ED50 at 60 min: 18.3 ± 3.3 mg/kg
[3]; 2 mg/kg baclofen orally twice daily, 14th day of treatment
  horizontal motor activity vs vehicle: neither baclofen alone, nor the combination altered the motor activity
[3]; 2 mg/kg baclofen orally twice daily, first day of treatment
  horizontal motor activity vs vehicle: neither baclofen alone, nor the combination altered the motor activity
[4]; 10 obese patients
  mean body weight loss: 1.7%
[4]
  participants (out of 10) who lost more than 5% body weight: one
[5]
  mean body weight increase: 0.9 kg

## C[C@H]1CNCCc2ccc(Cl)cc21 [lorcaserin]
[6]; after 1-year-long treatment
  weight loss relative to baseline: 5.8%
[6]; at 12 weeks
  weight loss relative to baseline: 3.5-4%

## CC12CC3CC(C)(C1)CC(N)(C3)C2 [memantine]
[1]; Study 1, first experiment, 2.5 mg/kg memantine per os twice daily
  vehicle-corrected body weight loss: 0.1%
[2]
  ED50 at 60 min: 16.1 ± 1.7 mg/kg
[3]; 2.5 mg/kg memantine orally twice daily, 14th day of treatment
  horizontal motor activity vs vehicle: statistically significantly (p<0.05) increased
[3]; 2.5 mg/kg memantine orally twice daily, first day of treatment
  horizontal motor activity vs vehicle: did not reach statistical significance
[7]
  side effect rate: dizziness: 0.8%
  side effect rate: nausea: 0.9%
  side effect rate: restlessness: 1.3%
  side effect rate: tiredness: 0.4%
[8]
  effect on binge episodes and body weight: decreased the number of binge episodes but not the body weight

## CC(C)(N)Cc1ccccc1 [phentermine]
[1]; Study 2, 2.5 mg/kg phentermine per os twice daily
  vehicle-corrected body weight loss: 5.4%
